Results published in US11407741B2, “Compounds and their use as selective inhibitors of caspase-2” (priority 2017, dated 2022).
Where a SMILES comes first, the peptide text is derived from it. The star is where a group is joined. X2 = O=C(O)C[C@H](N*)C(=O)COc1c(F)cccc1F; Quinaldoyl = O=C(c1ccc2ccccc2n1)*

Experiments:
Caspase-2 = target: T1, Caspase-2 (Homo sapiens, UniProt P42575); assay: Caspase-2 inhibition assay for irreversible inhibitors (kinact/KI, continuous method); format: biochemical
T1 construct: the Caspase-2 and Caspase-3 are human recombinant active enzymes; purchased Enzo Life ALX-201-057-U100
T1 sequence (P42575 170-325 limits assumed): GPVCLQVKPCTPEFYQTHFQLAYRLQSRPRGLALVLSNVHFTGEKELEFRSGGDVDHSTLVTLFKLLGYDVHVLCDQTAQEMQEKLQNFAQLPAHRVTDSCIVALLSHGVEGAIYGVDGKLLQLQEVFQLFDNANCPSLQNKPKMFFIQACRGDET
T1 sequence (P42575 348-452 limits assumed): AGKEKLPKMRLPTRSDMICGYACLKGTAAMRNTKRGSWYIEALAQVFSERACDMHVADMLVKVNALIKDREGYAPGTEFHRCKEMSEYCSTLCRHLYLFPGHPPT
Method: (§1) The efficiency of the comparative compound Δ2Me-TRP601, that is an already known group II Caspase inhibitor (inhibitor of Caspase-2, Caspase-3 and Caspase-7), has been assessed by a similar protocol described in Chauvier et al., 2011 Cell Death Dis 2011, 2:e203.
(§2) In this example, the Caspase-2 and Caspase-3 are human recombinant active enzymes that are respectively provided by Enzo Life® (ALX-201-057-U100) and R&D Systems® (707-C3-010/CF).
Caspase-2 is used at a final concentration of 0.1 nM in a “Caspase-2 buffer” containing 20 mM HEPES (pH 7.4), 5 mM DTT, 2 mM EDTA, 0.1% CHAPS and 800 mM succinate. Caspase-3 is used at a final concentration of 0.5 nM in a “Caspase-3 buffer” containing 20 mM HEPES (pH 7.4), 0.1% CHAPS, 5 mM DTT, and 2 mM EDTA.
(§3) The peptide substrates used for the enzymatic activity measurements are Ac-DEVD-AMC and Ac-VDVAD-AMC commercialized by EnzoLife® (respectively referenced ALX-260-031-M005 and ALX-260-060-M005). They are fluorogenic due to the presence of their AMC (7-amino-4-methylcoumarin) end group. The releasing of AMC enables to follow the enzymatic activity in fluorescence unit RFU over time in a 96-wells microplate.
The fluorescence values are measured at 37° C. with a spectrofluorometer with a microplate reader BMG FLUOstar OPTIMA. This apparatus is driven by the software Biolise® and is equipped with thermoelectric cooling device by Peltier effect. The mathematical analyses of the experimental data are done with the software Kaleidagraph®.
The inhibitory properties of the tested compounds are evaluated by the determination of the kinact/KI ratio regarding either Caspase-2 or Caspase-3 wherein: • kinact is the maximal inactivation rate constant, and • KI is the dissociation constant according to:
Said ratio is measured according to the continuous method (Allison R D. Curr Protoc Protein Sci. 2001 May; Chapter 3:Unit 3.5.; Chauvier et al., 2011 Cell Death Dis 2:e203; Tan et al., J Med Chem 2015, […]).
Briefly, Caspases activities were determined by monitoring the hydrolysis of fluorogenic substrates (λexc=355 nm, λem=460 nm) as a function of time, in the presence of untreated Caspases (control) or Caspases that had been incubated with a test compound, for 30 min minimum at 37° C. using a BMG Fluostar microplate reader (black 96-well microplates) and the initial velocity (V0) was determined from the linear portion of the progress curve.
Substrates and compounds were previously dissolved in DMSO at 10 mM, with the final solvent concentration kept at lower 4% (v/v). V0, relative velocities, KM and IC50 were determined from experimental data using Mars data Analysis 2.0 and Kaleidagraph softwares.
Inhibitor binding affinity (dissociation constant, KI) and first-order rate constant (k3) parameters were determined for Caspase-2 and Caspase-3 using the progress curve method. The ratio k3/KI was obtained by fitting the experimental data to the equations (F.U., fluorescence unit): […]
A continuous method of determination of the kinact/KI ratio was used for evaluating the inhibitory activity of the tested compounds against Caspase-2 and Caspase-3.
The reaction mixture is prepared by letting the enzyme and the buffer incubate at 37° C.
The tested inhibitory compounds are prepared at different concentrations (¼ IC50; ½ IC50; IC50; 2 IC50; 4 IC50) and put in the microplate.
Then the reaction mixture comprising the enzyme, the buffer and the substrate is rapidly added in the wells.
The activities of the enzyme are measured between 45 and 60 minutes.
The RFU (Relative Fluorescence Units)=f(times) curves are traced for each concentration of tested molecule according to the following equation: ((((−V0)*(exp(−kobs*m0)))+V0)/kobs*)+RFU0
in which: • V0 corresponds to the initial rate (RFU·s^−1) in the concentration of 0 of the tested inhibitory compound; • kobs is the inactivation rate constant; • RFU0 is the fluorescence value at t=0 min; and • m0 is the variable i.e. the inhibitor concentration.

Caspase-3 = target: T2, Caspase-3 (Homo sapiens, UniProt P42574); assay: Caspase-3 inhibition assay for irreversible inhibitors (kinact/KI, continuous method); format: biochemical; settings: human recombinant Caspase-3 0.5 nM, 37° C.
T2 construct: the Caspase-2 and Caspase-3 are human recombinant active enzymes; purchased R&D Systems 707-C3-010/CF
T2 sequence (P42574 29-175 limits assumed): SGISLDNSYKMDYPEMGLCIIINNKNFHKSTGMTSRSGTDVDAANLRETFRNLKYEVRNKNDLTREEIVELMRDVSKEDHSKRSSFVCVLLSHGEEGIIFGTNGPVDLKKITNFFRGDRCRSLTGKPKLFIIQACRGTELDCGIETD
T2 sequence (P42574 176-277 limits assumed): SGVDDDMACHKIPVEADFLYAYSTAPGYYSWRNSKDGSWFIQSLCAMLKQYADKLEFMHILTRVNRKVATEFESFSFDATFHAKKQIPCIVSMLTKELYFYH
Method: as §1, §2
Caspase-2 is used at a final concentration of 0.1 nM in a “Caspase-2 buffer” containing 20 mM HEPES (pH 7.4), 5 mM DTT, 2 mM EDTA, 0.1% CHAPS and 800 mM succinate. […]
as §3, with “They are fluorogenic due to the presence of their AMC (7-amino-4-methylcoumarin) end group.” left out
The fluorescence values are measured at 37° C. with a spectrofluorometer with a microplate reader BMG FLUOstar OPTIMA. […]
The inhibitory properties of the tested compounds are evaluated by the determination of the kinact/KI ratio regarding either Caspase-2 or Caspase-3 wherein: • kinact is the maximal inactivation rate constant, and • KI is the dissociation constant according to: […]
The activities of the enzyme are measured between 45 and 60 minutes. […]

HeLa cells = assay: Protection against vincristine-induced cell death, propidium iodide flow cytometry; format: cell-based, human; parameters: Index of cell death: key to the marks not given beside the values; settings: 20 nM Vincristine for 48 hours, propidium iodide positive cells
Method: Human HeLa cells are used in this model. HeLa cells (cervical cancer cell line) were obtained from American Type Cell Collection (ATCC), and were cultured in Dulbecco's Modified Eagle Medium (DMEM, High Glucose, GlutaMAX™, Pyruvate) (Gibco, Life technologies), supplemented with 10% FCS and antibiotics (Gibco, Life technologies).
Human HeLa cells are treated with a solution of Vincristine (Sigma Aldrich) (diluted in water at 5 mM). Vincristine works partly by binding to the Tubulin protein, stopping the cell from separating its chromosomes during the metaphase; the cell then undergoes apoptosis through a caspase-dependent process.
Propidium iodide (PI) (Sigma Aldrich) is used to evaluate plasma membrane permeabilisation, a sign of cell death.
24 hours before pharmacological treatment, HeLa cells were plated into 24-well plates. […] Cells were exposed or not (control), to 20 nM Vincristine for 48 hours.
The content of each well is collected is added to PBS and then centrifuged (900 rpm; 5 min).
The pellet obtained is put into 300 μL of a medium comprising propidium iodide and incubated (37° C., 5% CO2) in the dark for 5 minutes and then subjected to flow cytometry analysis.
Fluorescence-Activated Cell Sorting was performed using a FACSCalibur cytometer (Becton Dickinson, San Jose, Calif.). For each sample, data from 5,000 Cells were registered and analyzed with the CellQuest Pro software (Becton Dickinson). Analysis included FSC (Forward Scatter/relating to the cells'size) and SSC (Side Scatter/relating to the cells' granularity) parameters together with FL-1 and FL-3 channel.
The percentage of propidium iodide positive cells gives an estimation of cell death.

Structure (SMILES) | Selectivity for Caspase 2 (Caspase-2; comparison of kinact/KI ratios regarding caspase 2 and 3) | k3/KI Casp2 (Caspase-2; human recombinant Caspase-2 0.1 nM, 37° C.) | Selectivity ratio (C2/C3) (Caspase-2; ratio of k3/KI Casp2 to Casp3) | k3/KI Casp3 (Caspase-3) | Index of cell death (HeLa cells)
CC(C)[C@H](NC(=O)c1ccc2ccccc2n1)C(=O)N[C@@H](CC(=O)O)C(=O)N[C@H](C(=O)N[C@@H](C)C(=O)N[C@@H](CC(=O)O)C(=O)COc1c(F)cccc1F)C(C)C [Δ2Me-TRP-601, reference compound] (Quinaldoyl-VDVA-X2) | no | 1 586 020 M^−1 · s^−1 | 0.98 | 1 613 405 M^−1 · s^−1 | 
CC[C@]1(O)C[C@H]2CN(CCc3c([nH]c4ccccc34)[C@@](C(=O)OC)(c3cc4c(cc3OC)N(C=O)[C@H]3[C@@](O)(C(=O)OC)[C@H](OC(C)=O)[C@]5(CC)C=CCN6CC[C@]43[C@@H]65)C2)C1 [Vincristine alone, Vincristine, reference compound] |  |  |  |  | ++++
